According to the NIST ThermoML archive (doi:10.1021/je9006037):

How the values were obtained:
[1] = refractive index (Na D-line) (dimensionless); xn = mol fraction of the nth substance listed; conditions: 101 kPa, Liquid
[2] = 298.15 K; 101.33 kPa; Liquid

CO [methanol] + CCn1cc[n+](C)c1.O=S(=O)([O-])C(F)(F)F
[1], x2 = 0
Conditions | refractive index
288.15 K | 1.33071
298.15 K | 1.32653
308.15 K | 1.32237
318.15 K | 1.3182

CCO [ethanol]
Conditions | mass density [kg/m3]
[2] | 785.1

CO [methanol]
Conditions | mass density [kg/m3]
[2] | 786.49

CCCO [propan-1-ol] + CCn1cc[n+](C)c1.O=S(=O)([O-])C(F)(F)F
[1], x2 = 0
Conditions | refractive index
288.15 K | 1.38732
298.15 K | 1.38318
308.15 K | 1.37897
318.15 K | 1.37471
328.15 K | 1.37036
338.15 K | 1.36587

CC(C)O [propan-2-ol]
Conditions | mass density [kg/m3]
[2] | 780.89

CCn1cc[n+](C)c1.O=S(=O)([O-])C(F)(F)F [1-ethyl-3-methylimidazolium trifluoromethanesulfonate] + CCO
refractive index, [1]
Conditions | 288.15 K | 298.15 K | 308.15 K | 318.15 K | 328.15 K
x1 = 0.05087 | 1.37603 | 1.37224 | 1.36847 | 1.3647 | 1.36088
x1 = 0.1004 | 1.38531 | 1.38169 | 1.37828 | 1.37496 | 1.37123
x1 = 0.1504 | 1.39279 | 1.38937 | 1.38635 | 1.38336 | 1.3795
x1 = 0.201 | 1.39891 | 1.39566 | 1.39241 | 1.38923 | 1.38584
x1 = 0.2991 | 1.40822 | 1.40549 | 1.40179 | 1.39872 | 1.39607
x1 = 0.3976 | 1.41506 | 1.41187 | 1.40885 | 1.40581 | 1.40267
x1 = 0.4976 | 1.42051 | 1.41741 | 1.41441 | 1.41137 | 1.40841
x1 = 0.5935 | 1.4247 | 1.42164 | 1.41857 | 1.41564 | 1.41275
x1 = 0.6981 | 1.42832 | 1.42536 | 1.42243 | 1.41956 | 1.41673
x1 = 0.7994 | 1.43116 | 1.42826 | 1.42543 | 1.42262 | 1.41981
x1 = 0.8407 | 1.4322 | 1.42937 | 1.42653 | 1.42372 | 1.42093
x1 = 0.892 | 1.43344 | 1.43061 | 1.42781 | 1.42501 | 1.42222
x1 = 0.9444 | 1.43452 | 1.43172 | 1.42894 | 1.42619 | 1.42346
x1 = 1 | 1.43599 | 1.43322 | 1.4304 | 1.42767 | 1.42494

CCn1cc[n+](C)c1.O=S(=O)([O-])C(F)(F)F [1-ethyl-3-methylimidazolium trifluoromethanesulfonate]
Conditions | mass density [kg/m3]
[2] | 1383.58

CCCO [propan-1-ol]
Conditions | mass density [kg/m3]
[2] | 799.56

CCn1cc[n+](C)c1.O=S(=O)([O-])C(F)(F)F [1-ethyl-3-methylimidazolium trifluoromethanesulfonate] + CO
refractive index, [1]
Conditions | 288.15 K | 298.15 K | 308.15 K | 318.15 K
x1 = 0.04981 | 1.35401 | 1.35019 | 1.34673 | 1.34425
x1 = 0.1006 | 1.37019 | 1.36654 | 1.3636 | 1.36131
x1 = 0.1503 | 1.38187 | 1.37846 | 1.37522 | 1.37261
x1 = 0.2002 | 1.39131 | 1.38786 | 1.38479 | 1.38175
x1 = 0.2516 | 1.39849 | 1.39527 | 1.39212 | 1.38903
x1 = 0.3018 | 1.40415 | 1.40103 | 1.3983 | 1.39535
x1 = 0.3977 | 1.41297 | 1.40987 | 1.40694 | 1.40394
x1 = 0.499 | 1.41931 | 1.4163 | 1.41325 | 1.41035
x1 = 0.5911 | 1.42382 | 1.42086 | 1.41783 | 1.41502
x1 = 0.7059 | 1.42818 | 1.42529 | 1.42236 | 1.41954
x1 = 0.8054 | 1.43127 | 1.42843 | 1.42553 | 1.42265
x1 = 0.8494 | 1.43236 | 1.42952 | 1.42665 | 1.42387
x1 = 0.9013 | 1.43359 | 1.4308 | 1.42799 | 1.42515
x1 = 1 | 1.43599 | 1.43322 | 1.4304 | 1.42767

CCO [ethanol] + CCn1cc[n+](C)c1.O=S(=O)([O-])C(F)(F)F
[1], x2 = 0
Conditions | refractive index
288.15 K | 1.36358
298.15 K | 1.3593
308.15 K | 1.35503
318.15 K | 1.35073
328.15 K | 1.3463

CC(C)O [propan-2-ol] + CCn1cc[n+](C)c1.O=S(=O)([O-])C(F)(F)F
[1], x2 = 0
Conditions | refractive index
288.15 K | 1.37924
298.15 K | 1.37492
308.15 K | 1.37048
318.15 K | 1.36586
328.15 K | 1.36103
338.15 K | 1.35599
